Measured values reported in patent US8686113B2 (priority 2009, dated 2014).
≈ marks a conversion by molar mass, not a printed value. Non-standard residues stand in square brackets, D forms with d. Residues, ends and D or L forms follow the SMILES beside them. No end group written: not given here. Hyp = O=C(O)[C@@H]1C[C@@H](O)CN1; Tle = CC(C)(C)[C@H](N)C(=O)O; Orn = NCCC[C@H](N)C(=O)O

Experiments:
[1] = mouse, serum
Description: (§3) For this, the peptides and peptidomimetics were dissolved in water, mouse serum was added and the peptide concentration was adjusted to 75 μg/mL. While shaking continuously, the mixture was incubated at 37° C. After 0, 30, 60, 120, 240 and 360 minutes, in each case an aliquot was taken and mixed with 15% aqueous trichloroacetic acid (Carl Roth GmbH & Co. KG; Karlsruhe, Germany). After incubation on ice for a further 10 minutes, the precipitated serum proteins were centrifuged off (5 min, 13400 rpm, MiniSpin, Eppendorf AG, Hamburg, Germany). The supernatant was removed, neutralized with 1 mol/L aqueous sodium hydroxide solution (Fluke Chemie GmbH, Buchs, Switzerland) and stored at −20° C. until analysis.
(§4) The supernatants were analyzed by RP-HPLC with a linear acetonitrile gradient (Biosolve BV, Valkenswaard, The Netherlands) in the presence of 0.1% trifluoroacetic acid (TFA, UV-grade, Fluka Chemie GmbH, Buchs, Switzerland) as ion-pairing reagent. The fractions were co-crystallized with α-cyanohydroxycinnamic acid (Bruker Daltonik GmbH; Bremen, Germany) as matrix (5.3 mg/mL in 50% acetonitrile in 0.1% aqueous TFA) and were analyzed with a tandem mass spectrometer (MALDI-TOF/TOF-MS, 4700 Proteomics Analyzer; Applied Biosystems GmbH, Weiterstadt, Germany) in the positive-ion reflector mode. The proportion of intact peptides and their degradation products or metabolites could thus be identified and quantified at the individual time points. The control used was 25% aqueous mouse serum, which was analyzed in parallel for the same time intervals.

M. luteus 10240 = test: Growth inhibition assay (microdilution MIC); assay type: cell-based, Micrococcus luteus
Summary of the method: (§1)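 Broth microdilution in 1% TSB with twofold peptide series, final 128 μg/mL to 62.5 ng/mL, against 5×10^6 bacteria/mL stock suspension added 1:1. Incubated 20 h at 37 °C, growth read by absorbance at 595 nm; MIC is the lowest concentration with no growth, determined in triplicate.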

in vitro [2] = conditions: mouse, 100% mouse serum
Description: as §3, §4

[3] = Stability against bacterial proteases in E. coli lysate; assay type: in vitro ADME; conditions: E. coli BL21 A1 lysate (bacterial proteases), pH 7.4; E. coli lysate with 0.5 mg/mL protein concentration; read-out: percentage printed under half-life >240 min (peptide remaining)
Summary of the method: (§2)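 Peptide (0.15 μg/mL) incubated at 37° C. in E. coli BL21 A1 sonicated lysate in PBS pH 7.4, Bradford-adjusted to 1.5 or 0.5 mg/mL protein. Samples at 0–360 min TCA-precipitated and neutralized. Intact peptide and fragments quantified by HPLC, identified by MALDI-TOF-MS.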

[4] = test system: bacterial proteases (E. coli BL21 A1 lysate); test: as above; assay type: in vitro ADME; conditions: 37° C.
Summary of the method: as §2

E. coli BL21 A1 = assay type: cell-based, Escherichia coli; conditions: 1% TSB, 20 h at 37° C.
Summary of the method: as §1

E. coli D31 J. Wilson = conditions: ¼ Muller-Hinton medium
P. vulgaris ATCC 6896 = conditions: ATCC 6896
S. saprophyticus 15305 = conditions: 15305
P. mirabilis ATCC 7002 = conditions: ATCC 7002
[5] = test system: S. typhimurium ATCC 700408
in vitro [6] = conditions: mouse, 25% aqueous mouse serum, Half-life in 25% mouse serum, 37° C., 75 μg/mL peptide
25% aqueous mouse serum = conditions: 37° C., up to 360 minutes

With `CC(C)C[C@H](NC(=O)[C@H](Cc1ccc(O)cc1)NC(=O)[C@@H]1CCCN1C(=O)[C@@H]1CCCN1C(=O)[C@H](CCCCN)NC(=O)[C@H](CC(=O)O)NC(=O)[C@@H](N)C(C)C)C(=O)N1CCC[C@H]1C(=O)N[C@@H](CCCNC(=N)N)C(=O)N1CCC[C@H]1C(=O)N[C@@H](CCCNC(=N)N)C(=O)N1CCC[C@H]1C(=O)N1C[C@H](O)C[C@H]1C(=O)N[C@@H](CCCNC(=N)N)C(=O)N1C[C@H](O)C[C@H]1C(=O)N[C@H](C(=O)N[C@@H](Cc1ccc(O)cc1)C(=O)N[C@@H](CC(N)=O)C(=O)N[C@@H](CCCN)C(N)=O)C(C)(C)C` [compound 110] (H-VDKPPYLPRPRP[Hyp]R[Hyp][Tle]YN[Orn]-NH2) the half-life [1] was over 8 h, the “MIC M. luteus 10240” value (M. luteus 10240; 10240, 20 h) was 16 µg/mL (≈ 6.89 µM) and the remaining at 8 h, 75 μg/mL (in vitro [2]) was 70%. The remaining at 4 h, 0.15 μg/mL [3] was 90% and the “Half-life in E. coli lysate” value ([4]; E. coli lysate with 0.5 mg/mL protein concentration) was over 4 h.
In the case of VDKPPYLPRPRPPRRIYNR-NH2 [SEQ ID NO. 18], the “MIC E. coli BL21 A1” value (E. coli BL21 A1) was 4 µg/mL, the “MIC M. luteus 10240” value (M. luteus 10240; 1% TSB, 20 h at 37° C.) was 8 µg/mL and the half-life at 0.15 μg/mL ([4]; E. coli, E. coli BL21 A1 lysate, pH 7.4, E. coli lysate with 0.5 mg/mL protein concentration) was 1 h. The “MIC E. coli D31 J. Wilson” value (E. coli D31 J. Wilson) was 2 µg/mL, the “MIC P. vulgaris ATCC 6896” value (P. vulgaris ATCC 6896) was 128 µg/mL and the “MIC K. pneumoniae 012-3131” value (K. pneumoniae 012-3131) was 4 µg/mL. The “MIC P. aeruginosa 39324” value (P. aeruginosa 39324) was 4 µg/mL, the “MIC S. saprophyticus 15305” value (S. saprophyticus 15305) was 16 µg/mL and the “MIC P. mirabilis ATCC 7002” value (P. mirabilis ATCC 7002) was 128 µg/mL. For the same molecule, the “MIC S. typhimurium ATCC 700408” value [5] was 0.25 µg/mL and the half-life at 75 μg/mL (in vitro [6]) was 1 h.
For VDKPPYLPRPRPPRRIYNR-OH, the cleaved bond (25% aqueous mouse serum) was “Asn18-arginine19, first_seen”.
